Molecular target: T1, human TLR7 (Homo sapiens, UniProt Q9NYK1)
T1 construct: host or cells: HEK293 (HEK-Blue hTLR7)
T1 sequence (Q9NYK1 27-1049): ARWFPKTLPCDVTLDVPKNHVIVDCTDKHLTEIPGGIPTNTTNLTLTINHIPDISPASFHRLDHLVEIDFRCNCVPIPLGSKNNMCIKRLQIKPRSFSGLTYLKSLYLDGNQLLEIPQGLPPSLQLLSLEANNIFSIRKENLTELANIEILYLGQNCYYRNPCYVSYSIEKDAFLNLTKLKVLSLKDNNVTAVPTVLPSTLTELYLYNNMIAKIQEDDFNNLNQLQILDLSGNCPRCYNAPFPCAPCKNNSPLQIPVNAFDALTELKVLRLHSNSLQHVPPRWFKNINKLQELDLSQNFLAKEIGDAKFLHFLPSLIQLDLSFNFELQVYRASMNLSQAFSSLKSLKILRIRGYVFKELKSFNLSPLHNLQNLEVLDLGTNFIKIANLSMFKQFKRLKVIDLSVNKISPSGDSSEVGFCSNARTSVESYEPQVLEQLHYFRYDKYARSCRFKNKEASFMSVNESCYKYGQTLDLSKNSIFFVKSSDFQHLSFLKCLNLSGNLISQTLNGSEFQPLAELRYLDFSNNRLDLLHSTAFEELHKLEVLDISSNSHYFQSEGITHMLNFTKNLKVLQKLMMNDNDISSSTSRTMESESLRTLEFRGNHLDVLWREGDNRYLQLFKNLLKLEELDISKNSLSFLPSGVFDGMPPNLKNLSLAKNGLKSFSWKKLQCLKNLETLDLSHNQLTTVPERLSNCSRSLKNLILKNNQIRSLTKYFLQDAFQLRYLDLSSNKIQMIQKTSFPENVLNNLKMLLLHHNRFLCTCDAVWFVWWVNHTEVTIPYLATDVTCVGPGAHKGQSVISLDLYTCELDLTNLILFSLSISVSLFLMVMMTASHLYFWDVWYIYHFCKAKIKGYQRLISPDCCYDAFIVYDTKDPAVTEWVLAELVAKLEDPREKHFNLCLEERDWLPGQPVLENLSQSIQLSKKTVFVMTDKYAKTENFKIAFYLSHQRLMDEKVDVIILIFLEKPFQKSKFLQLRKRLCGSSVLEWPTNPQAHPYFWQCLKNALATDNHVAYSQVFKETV
Test: HEK293-Blue hTLR7 Reporter Assay (QUANTI-BLUE, SEAP readout)
Format: cell-based
Details: HEK-Blue-hTLR7 cells, 24 hrs treatment, Table 1, B1-B232
Procedure, shortened: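 HEK-Blue-hTLR7 cells expressing NF-κB/AP-1-driven SEAP, 4×10^4 cells/well, treated 24 h at 37° C with increasing compound concentrations. Supernatant SEAP measured with Quanti-blue substrate (10-30 min, 37° C) at 620-655 nm; EC50 from sigmoidal dose-response fit.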

Compound | EC50 [nM]
CCCC(CCC)Oc1nc(N)c2ncc(Cc3cnc(N4CCC(N(C)C)CC4)c(C)c3)n2n1 [Compound B186, 7-((6-(4-(dimethylamino)piperidin-1-yl)-5-methylpyridin-3-yl)methyl)-2-(heptan-4-yloxy)imidazo[2,1-f][1,2,4]triazin-4-amine] | 4.9
CCCCOc1nc(N)c2ncc(Cc3cnc(N4CC5(CCNCC5)C4)c(C)c3)n2n1 [Compound B102, 2-butoxy-7-((5-methyl-6-(2,7-diazaspiro[3.5]nonan-2-yl)pyridin-3-yl)methyl)imidazo[2,1-f][1,2,4]triazin-4-amine] | 464
CCCC(C)Nc1nc(N)c2ncc(Cc3cnc(N4CCC(CN(C)C)CC4)c(C)c3)n2n1 (stereo not drawn) [Compound B137, 7-((6-(4-((dimethylamino)methyl)piperidin-1-yl)-5-methylpyridin-3-yl)methyl)-N2-(pentan-2-yl)imidazo[2,1-f][1,2,4]triazine-2,4-diamine] | 4.1
CCC(CC)Oc1nc(N)c2ncc(Cc3cnc(N4CCC(CN(C)C)CC4)c(C)c3)n2n1 [Compound B189, 7-((6-(4-((dimethylamino)methyl)piperidin-1-yl)-5-methylpyridin-3-yl)methyl)-2-(pentan-3-yloxy)imidazo[2,1-f][1,2,4]triazin-4-amine] | 19
CCCCOc1nc(N)c2ncc(Cc3cnc(N4CCC(CN5CCOCC5)CC4)c(C)c3)n2n1 [Compound B109, 2-butoxy-7-((5-methyl-6-(4-(morpholinomethyl)piperidin-1-yl)pyridin-3-yl)methyl)imidazo[2,1-f][1,2,4]triazin-4-amine] | 161
CCCCOc1nc(N)c2ncc(Cc3cnc(N4CCCCCC4)c(C)c3)n2n1 [Compound B35, 7-((6-(azepan-1-yl)-5-methylpyridin-3-yl)methyl)-2-butoxyimidazo[2,1-f][1,2,4]triazin-4-amine] | > 10000
CC[C@@H](CCO)Oc1nc(N)c2ncc(Cc3cnc(N4CCNCC4)c(C)c3)n2n1 [Compound B216, (S)-3-((4-amino-7-((5-methyl-6-(piperazin-1-yl)pyridin-3-yl)methyl)imidazo[2,1-f][1,2,4]triazin-2-yl)oxy)pentan-1-ol] | 1080
CCCCNc1nc(N)c2ncc(Cc3cnc(N4CCN(C(=O)CN(C)C)CC4)c(C)c3)n2n1 [Compound B71, 1-(4-(5-((4-amino-2-(butylamino)imidazo[2,1-f][1,2,4]triazin-7-yl)methyl)-3-methylpyridin-2-yl)piperazin-1-yl)-2-(dimethylamino)ethan-1-one] | 31
CCCCOc1nc(N)c2ncc(Cc3cnc(N4CCN(C(=O)CN5CCNCC5)CC4)c(C)c3)n2n1 [Compound B40, 1-(4-(5-((4-amino-2-butoxyimidazo[2,1-f][1,2,4]triazin-7-yl)methyl)-3-methylpyridin-2-yl)piperazin-1-yl)-2-(piperazin-1-yl)ethan-1-one] | 908
CCC[C@@H](C)Oc1nc(N)c2ncc(Cc3cnc(N4CCN(C(=O)CN(C)C)CC4)c(C)c3)n2n1 [Compound B124, (R)-1-(4-(5-((4-amino-2-(pentan-2-yloxy)imidazo[2,1-f][1,2,4]triazin-7-yl)methyl)-3-methylpyridin-2-yl)piperazin-1-yl)-2-(dimethylamino)ethan-1-one] | 51
CCC(CC)Nc1nc(N)c2ncc(Cc3cnc(N4CCC(N(C)C)CC4)c(C)c3)n2n1 [Compound B209, 7-((6-(4-(dimethylamino)piperidin-1-yl)-5-methylpyridin-3-yl)methyl)-N2-(pentan-3-yl)imidazo[2,1-f][1,2,4]triazine-2,4-diamine] | 9.2
CCCCOc1nc(N)c2ncc(Cc3cnc(N4CCC(CN(CC)CC)CC4)c(C)c3)n2n1 [Compound B126, 2-butoxy-7-((6-(4-((diethylamino)methyl)piperidin-1-yl)-5-methylpyridin-3-yl)methyl)imidazo[2,1-f][1,2,4]triazin-4-amine] | 22
CCCCOc1nc(N)c2ncc(Cc3cnc(N4CCC(CCN(C)C)CC4)c(C)c3)n2n1 [Compound B110, 2-butoxy-7-((6-(4-(2-(dimethylamino)ethyl)piperidin-1-yl)-5-methylpyridin-3-yl)methyl)imidazo[2,1-f][1,2,4]triazin-4-amine] | 43
CCCCOc1nc(N)c2ncc(Cc3ccc(C4CCNCC4)nc3C)n2n1 [Compound B54, 2-butoxy-7-((2-methyl-6-(piperidin-4-yl)pyridin-3-yl)methyl)imidazo[2,1-f][1,2,4]triazin-4-amine] | 158
CCC[C@H](C)Oc1nc(N)c2ncc(Cc3cnc(N4CCN(C(=O)CNCC(C)C)CC4)c(C)c3)n2n1 [Compound B212, (S)-1-(4-(5-((4-amino-2-(pentan-2-yloxy)imidazo[2,1-f][1,2,4]triazin-7-yl)methyl)-3-methylpyridin-2-yl)piperazin-1-yl)-2-(isobutylamino)ethan-1-one] | 6.2
2-butoxy-7-((6-(piperidin-4-yl)-5-(trifluoromethyl)pyridin-3-yl)methyl)imidazo[2,1-f][1,2,4]triazin-4-amine [Compound B28] | 302
CC[C@@H](C)Oc1nc(N)c2ncc(Cc3cnc(N4CCN(C(=O)CNC)CC4)c(C)c3)n2n1 [Compound B159, (R)-1-(4-(5-((4-amino-2-(sec-butoxy)imidazo[2,1-f] [1,2,4]triazin-7-yl)methyl)-3-methylpyridin-2-yl)piperazin-1-yl)-2-(methylamino)ethan-1-one] | 48
Cc1cc(Cc2cnc3c(N)nc(OC(C)C)nn23)cnc1N1CCNCC1 [Compound B66, 2-isopropoxy-7-((5-methyl-6-(piperazin-1-yl)pyridin-3-yl)methyl)imidazo[2,1-f][1,2,4]triazin-4-amine] | 146
CCCCOc1nc(N)c2ncc(Cc3ccc(N4CCNCC4)c(C(C)C)c3)n2n1 [Compound B90, 2-butoxy-7-(3-isopropyl-4-(piperazin-1-yl)benzyl)imidazo[2,1-f][1,2,4]triazin-4-amine] | 2360
CCCCOc1nc(N)c2ncc(Cc3cnc(N4C[C@@H]5C[C@H]4CN5)c(C)c3)n2n1 [Compound B168, 7-((6-((1S,4S)-2,5-diazabicyclo[2.2.1]heptan-2-yl)-5-methylpyridin-3-yl)methyl)-2-butoxyimidazo[2,1-f][1,2,4]triazin-4-amine] | 124
Cc1cc(Cc2cnc3c(N)nc(OC4CCCC4)nn23)cnc1N1CCNCC1 [Compound B172, 2-(cyclopentyloxy)-7-((5-methyl-6-(piperazin-1-yl)pyridin-3-yl)methyl)imidazo[2,1-f][1,2,4]triazin-4-amine] | 260
CCCCOc1nc(N)c2ncc(Cc3cnc(N4CCN[C@@H](C)C4)c(C)c3)n2n1 [Compound B132, (S)-2-butoxy-7-((5-methyl-6-(3-methylpiperazin-1-yl)pyridin-3-yl)methyl)imidazo[2,1-f][1,2,4]triazin-4-amine] | 48
CC[C@H](O)CCOc1nc(N)c2ncc(Cc3cnc(N4CCNCC4)c(C)c3)n2n1 [Compound B217, (S)-1-((4-amino-7-((5-methyl-6-(piperazin-1-yl)pyridin-3-yl)methyl)imidazo[2,1-f][1,2,4]triazin-2-yl)oxy)pentan-3-ol] | 2440
CCCCCOc1nc(N)c2ncc(Cc3cnc(N4CCNCC4)c(C)c3)n2n1 [Compound B23, 7-((5-methyl-6-(piperazin-1-yl)pyridin-3-yl)methyl)-2-(pentyloxy)imidazo[2,1-f][1,2,4]triazin-4-amine] | 487
CCCC(CC)Oc1nc(N)c2ncc(Cc3cnc(N4CCN(C(=O)CN(C)C)CC4)c(C)c3)n2n1 (stereo not drawn) [Compound B169, 1-(4-(5-((4-amino-2-(hexan-3-yloxy)imidazo[2,1-f][1,2,4]triazin-7-yl)methyl)-3-methylpyridin-2-yl)piperazin-1-yl)-2-(dimethylamino)ethan-1-one] | 2.9
CCCC(CCC)Oc1nc(N)c2ncc(Cc3cnc(N4CCN(C(=O)CNC)CC4)c(C)c3)n2n1 [Compound B197, 1-(4-(5-((4-amino-2-(heptan-4-yloxy)imidazo[2,1-f][1,2,4]triazin-7-yl)methyl)-3-methylpyridin-2-yl)piperazin-1-yl)-2-(methylamino)ethan-1-one] | 3.9
CCCC(CC)Nc1nc(N)c2ncc(Cc3cnc(N4CCNCC4)c(C)c3)n2n1 (stereo not drawn) [Compound B223, N2-(hexan-3-yl)-7-((5-methyl-6-(piperazin-1-yl)pyridin-3-yl)methyl)imidazo[2,1-f][1,2,4]triazine-2,4-diamine] | 6

Reference: patent US12612407B2, “Imidazo[2,1-f][1,2,4]triazin-4-amine derivatives as TLR7 agonist” (BEIGENE, LTD., priority 2020, dated 2026)
